According to ChEMBL document CHEMBL1127254, “Induction of endonucleolytic DNA fragmentation and apoptosis by the duocarmycins” (Bioorg Med Chem Lett, 1994):

Columns and labels:
[1] = Mean concentration required for the compound to inhibit tumor activity in 20 different cell lines was determined; type: functional
MOLT-4 [2] = assay: Induced cell death in Molt-4 cell line at a dose of E-8 M after 5 hour of incubation; type: functional, Homo sapiens
MOLT-4 [3] = assay: Induced cell death in Molt-4 cell line at a dose of E-8 M after 20 hour of incubation; type: functional, Homo sapiens
MOLT-4 [4] = assay: Induced cell death in Molt-4 cell line at a dose of E-10 M after 8 hour of incubation; type: functional, Homo sapiens
MOLT-4 [5] = assay: Induced cell death in Molt-4 cell line at a dose of E-8 M after 1 hour of incubation; type: functional, Homo sapiens
MOLT-4 [6] = assay: Induced cell death in Molt-4 cell line at a dose of E-8 M after 3 hour of incubation; type: functional, Homo sapiens
MOLT-4 [7] = assay: Induced cell death in Molt-4 cell line at a dose of E-9 M after 28 hour of incubation; type: functional, Homo sapiens
MOLT-4 [8] = assay: Induced cell death in Molt-4 cell line at a dose of E-10 M after 5 hour of incubation; type: functional, Homo sapiens
MOLT-4 [9] = assay: Induced cell death in Molt-4 cell line at a dose of E-10 M after 20 hour of incubation; type: functional, Homo sapiens
MOLT-4 [10] = assay: Induced cell death in Molt-4 cell line at a dose of E-10 M after 3 hour of incubation; type: functional, Homo sapiens
MOLT-4 [11] = assay: Induced cell death in Molt-4 cell line at a dose of E-9 M after 1 hour of incubation; type: functional, Homo sapiens
MOLT-4 [12] = assay: Induced cell death in Molt-4 cell line at a dose of E-10 M after 28 hour of incubation; type: functional, Homo sapiens
MOLT-4 [13] = assay: Induced cell death in Molt-4 cell line at a dose of E-8 M after 8 hour of incubation; type: functional, Homo sapiens
MOLT-4 [14] = assay: Induced cell death in Molt-4 cell line at a dose of E-9 M after 5 hour of incubation; type: functional, Homo sapiens
MOLT-4 [15] = assay: Induced cell death in Molt-4 cell line at a dose of E-10 M after 1 hour of incubation; type: functional, Homo sapiens
MOLT-4 [16] = assay: Induced cell death in Molt-4 cell line at a dose of E-9 M after 20 hour of incubation; type: functional, Homo sapiens
MOLT-4 [17] = assay: Induced cell death in Molt-4 cell line at a dose of E-9 M after 3 hour of incubation; type: functional, Homo sapiens
MOLT-4 [18] = assay: Induced cell death in Molt-4 cell line at a dose of E-8 M after 28 hour of incubation; type: functional, Homo sapiens
MOLT-4 [19] = assay: Induced cell death in Molt-4 cell line at a dose of E-9 M after 8 hour of incubation; type: functional, Homo sapiens

## COC(=O)[C@]1(C)Nc2c(O)cc3c(c2C1=O)[C@H](CCl)CN3C(=O)c1cc2cc(OC)c(OC)c(OC)c2[nH]1
[1]
  IC50: 20 nM

## COC(=O)c1cc2c([nH]1)C(=O)C=C1N(C(=O)c3cc4cc(OC)c(OC)c(OC)c4[nH]3)C[C@H]3C[C@]123 [DUOCARMYCIN]
MOLT-4 [2]
  Viability: 80%
MOLT-4 [3]
  Viability: 10%
MOLT-4 [4]
  Viability: 65%
MOLT-4 [5]
  Viability: 95%
MOLT-4 [6]
  Viability: 92%
MOLT-4 [7]
  Viability: 12%
MOLT-4 [8]
  Viability: 90%
MOLT-4 [9]
  Viability: 58%
MOLT-4 [10]
  Viability: 95%
MOLT-4 [11]
  Viability: 95%
MOLT-4 [12]
  Viability: 58%
MOLT-4 [13]
  Viability: 42%
MOLT-4 [14]
  Viability: 85%
MOLT-4 [15]
  Viability: 95%
MOLT-4 [16]
  Viability: 15%
MOLT-4 [17]
  Viability: 95%
MOLT-4 [18]
  Viability: 10%
[1]
  IC50: 0.1 nM
MOLT-4 [19]
  Viability: 52%
